In patent US5362879A, “4-5-diphenyloxazole derivatives as inhibitors of blood platelet aggregation” (Bristol-Myers Squibb Company, priority 1993, dated 1994):
Values after ≈ are worked out from the molar mass of the structure shown.

Assays:
[1] = test system: human platelets in platelet-rich-plasma; test: ADP-induced aggregation of human platelets in platelet-rich plasma (Born aggregometer method as modified by Mustard et al.); format: cell-based
Method: Platelet-rich plasma was prepared from human blood drain into syringes containing 1/10 volume of 3.8% sodium citrate. The blood was then subjected to centrifugation for about 10 minutes at 140 g and then the platelet-rich plasma decanted. The test compound was dissolved in DMSO (5 μL) and added to PRP (0.9 mL) 3 minutes prior to the addition of ADP (5.86 μM). The aggregometer method of Born, as modified by Mustard et al., was employed to measure platelet aggregation. Vehicle control trials were performed and compared with the extent of aggregation induced in PRP containing various concentrations of the test compounds. Dose-response curves were thus obtained and IC50 values determined.

human PRP = conditions: cited from earlier work
platelet aggregation = conditions: prior art description; cited from earlier work

Structure (SMILES) | potency relative to the compound of Formula (ii) (inhibition of ADP-induced platelet aggregation) [1] | IC50 (human PRP vs ADP) (human PRP) [µg/mL] | inhibition of platelet aggregation (in words) (platelet aggregation)
CCOC(=O)N(Cc1nc(-c2ccccc2)c(-c2ccccc2)o1)c1cccc(OCC(=O)O)c1 [Compound 13d, [3-[[(4,5-diphenyl-2-oxazolyl)methyl](ethoxycarbonyl)amino]phenoxy]acetic acid] | four times as potent | – | –
O=C(O)CCCCCCCOc1nc(-c2ccccc2)c(-c2ccccc2)n1-c1ccccc1 [Octimibate] | – | 1 (≈ 2.2 µM) | broad spectrum inhibitor of platelet aggregation
O=C(O)CCCCCCCOc1nc(-c2ccccc2)c(-c2ccccc2)n1-c1ccccc1 [octimibate sodium] | – | – | possessing anti-aggregatory activity
